Source: article PMC9732521, “Molecular mechanism of GylR-mediated regulation of glycerol metabolism in Streptomyces clavuligerus NRRL 3585” (Frontiers in Microbiology, 2022)

Key:
GylR = target: T1, GylR (Streptomyces clavuligerus, UniProt E2PWC0); experiment: EMSA, dissociation of GylR from DNA probe BS2; format: binding; settings: effector (inducer), 50 mM HEPES pH 7.5, 5 mM MgCl2, 25 °C
T1 construct: gene SCLAV_0876; coding region of gylR in pET-30a (NdeI/XhoI), C-terminal His6 tag, E. coli Rosetta (DE3), Ni-NTA; dimer by SEC
T1 sequence (E2PWC0 entry or part of it): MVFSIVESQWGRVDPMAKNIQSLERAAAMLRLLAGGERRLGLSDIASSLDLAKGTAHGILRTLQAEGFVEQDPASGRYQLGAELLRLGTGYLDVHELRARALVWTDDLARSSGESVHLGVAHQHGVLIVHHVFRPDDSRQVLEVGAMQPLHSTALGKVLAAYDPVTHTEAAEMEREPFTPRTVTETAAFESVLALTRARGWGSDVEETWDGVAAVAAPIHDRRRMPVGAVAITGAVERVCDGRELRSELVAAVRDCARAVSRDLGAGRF

[1] = target: GylR (IclR family transcriptional regulator) of Streptomyces clavuligerus NRRL 3585, C-terminal His6-tagged (Streptomyces clavuligerus NRRL 3585); experiment: SEC; TSKgel G3000 SWxl column (7.8 x 300 mm) on HPLC, 0.1 M Na2SO4 (pH 6.7), 0.5 ml/min; bovine serum albumin, ovalbumin and AlpJ as molecular weight standards

Row | Molecule | EMSA, dissociation of GylR from DNA probe BS2 (GylR) | stoichiometry N [1]
1 | O=C(CO)COP(=O)(O)O [DHAP, dihydroxyacetone phosphate] | both G3P and DHAP were capable of inducing the dissociation of GylR from BS2 | –
2 | O=P(O)(O)OC[C@H](O)CO [G3P, glycerol-3-phosphate] | both G3P and DHAP were capable of inducing the dissociation of GylR from BS2 | –
3 | GylR (IclR family transcriptional regulator) of Streptomyces clavuligerus NRRL 3585, C-terminal His6-tagged (natural protein) | – | 2
